Like-named read-outs stand apart in the source and are kept apart here.

Series [1] concerns HepG2 cells. The series can be described thus: Lipid droplet accumulation inhibition (LDAI) assay, Oil Red O, oleic acid-loaded cells. The series is classed as cell-based, human. Conditions: for Induction of LDs: HepG2. The procedure:
LDAI assay: LDAI activity was determined using an Oil Red O assay with 24-well plates (n = 4 per treatment). Staining of LDs in cultured hepatocytes was performed according to the manufacturer’s instructions, based on the Oil Red O staining assay. Briefly, HepG2 cells (1.5 × 10^4/well) were supplemented with 10% FBS, cultured, seeded in 35-mm dishes, and treated with the tested samples after 24 h. Oil Red O, a fat-soluble dye, is widely used for staining neutral lipids in LDs, as described in the Supplementary Materials. […]
2 1.2. Cytotoxicity assay dropwise under ice-cooling. […]
Lipid droplet accumulation inhibition assay and Real-Ti me LDAI acid tryptophan (9) and compound 12 were subjected to acid conversion at 90 °C accumulation in acetic acid to obtain compound 2 (1H and 13C, see in Supporting Information). Lipid droplet accumulation inhibition (LDAI) activity was determined using an Synthesis of Compound 4. To a stirred soln . compound 3 in MeOH was added oilred assay in a 24-well plate according to the manufacturer ’sinstructions (n = 4 with NaOH (2 mol/L). Compound 4 was obtained after stirringthe mixture at 65℃ per each treatment). Real-time oleic induced-LD inhibition was performed by for 5 h. (1H and 13C, see Figures S10 and S11). We also prepared similar using a Nikkon microscope. Morphological analysis of HepG2 cells after compounds without any substituent at the C-1 position in the C-ring using a one- treatment with control(-OA) and (+OA) or compound at different concentrations pot Pictet–Spengler reaction (6-8). was determined by staining with AO/EB.
Synthetic b-carboline alkaloids (1-8): 1.4. Oil Red O Staining.
CAS Registry Number of all the series of synthetic b-carboline alkaloids (1-8) HepG2 cells were cultured and treated in 35 mm dishes, as described above. were subjected to biological evaluation: 1H-Pyrido[3,4-b]indole-3-carboxylic acid, Oil Red O dye was used for LD staining. Oil Red O was dissolved in isopropanol 1-[5-[(acetyloxy)methyl]-2-furanyl]-2,3,4,9-tetrahydro-, methyl ester, (1S-trans)- as 3 mg/mL and diluted with water so that isopropanol became 60%. Oil Red O (9CI) (1,CAS Registry Number 11 5 1 0 7-75-0;11 5 1 0 7-76-1);2,3,4,9-Tetrahydro-1-solutionwasfilteredbya0.4 μm pore syringe filter.For cellular staining, the […]

Series [2] in a line: Cytotoxicity / lipocytotoxicity assay (CCK-8). The series is classed as cell-based. Conditions: human; for IC50 at 24 h: HepG2, values given in the text, read-out: IC50 (cytotoxicity, cell viability). The protocol:
(§1) HepG2 cells were purchased from the American Type Culture Collection (ATCC) (Manassas, VA, USA). High-glucose DMEM containing 10% heat-inactivated FBS and 1% penicillin–streptomycin was maintained under a humidified atmosphere at 37 °C with 5% CO2, as indicated in the Supplementary Materials. HepG2 cells (1.5 × 10^4/well) in DMEM supplemented with 10% FBS were seeded into a 96-well plate. A cytotoxicity assay was performed according to the manufacturer’s protocol using CCK-8 (Dojindo Molecular Technologies), as indicated in the Supplementary Materials (Materials and Methods). […]
(§2) 2 1.2. Cytotoxicity assay […] HepG2 cells (1.5 × 10^4/well) in DMEM supplemented with 10% FBS were under reduced pressure, and H2O (25 ml) was added. Then the solution was seeded into a 96-well plate. The cytotoxicity assay was done using CCK-8 extracted with AcOEt after adjusted to 9–10 with aq. NaOH solution. The organic (Dojindo Molecular Technologies) according to the manufacturer's protocol. […]
(§3) Compounds 1 and 3. To a stirred soln. Compound 10 (218 mg, 1.00 mmol), 5- Technologies, Rockville, USA) according to the manufacturer ’sinstructions. Cell Acetoxymethylfurfural (1, 168 mg, 1.00 mmol) and Nano CuO (7.955 mg, 0.1 suspension (100 μl/well) was inoculated in a 96-well plate (Iwaki, Japan), and mmol) were added 6 ml of DMF. The mixture was stirred at 90℃ for 16 h. The pH once monolayers were observed, treatments were added (n = 3 per each of the aqueous solution was adjusted to 9–10 with aq NaOH solution after adding treatment). Cells were then pre-incubated with the treatments for 24 h before H O. After extracting the solution with AcOEt, the organic layer was washed with assay to determine cell viability.Absorbance was measured at 450 nm using a 2 plate reader (PerkinElmer-ARVO-MX-ID 10533234, Japan). […]
(§4) [5-(hydroxymethyl)-2-furanyl]-1H-pyrido[3,4-b]indole-3-carboxylic acid (2, CAS culture medium was removed from each dish, and cells were washed Registry Number 896466-77-6); flazine methyl ester acetate (3, CAS Registry and rinsed with 1× PBS. Cells were then fixed for 20 min in 10% formalin and Number 104537-95-3); flazin (4, CAS Registry Number 100041-05-2); washed twice using PBS. Then, Oil Red O dye was added to the dishes and incubated for 20 min. Finally, the dye was removed from each dish and cells 5

Series [3] relates to HepG2 cells. The series can be described thus: Cytotoxicity / lipocytotoxicity assay (CCK-8). The series is classed as cell-based. To be noted: 0.25 mM oleic acid, 24 h, HepG2. The procedure: as §1, §2, §3, §4
The next series concerns human HepG2. Further details: method as in PMID 30103390. Conditions: human HepG2, 180 μM; cited from earlier work.
Series [4] deals with HepG2 cells. To be noted: 100 μM; cited from earlier work.
The subject of series [5] is nuclear factor erythroid 2-related factor 2 (Nrf2). To be noted: hepatocytes; cited from earlier work.
The mark [6] stands for this setting: Homo sapiens, HepG2, 24 h, HepG2 + 0.25 mM oleic acid, vs untreated control (+OA).
The mark [7] stands for this setting: HepG2 cells, HepG2, DMEM loaded with fatty acid (+OA), read-out: Lipocytotoxicity (LC50), concentration at which 50% of cells died.
The mark [8] stands for this setting: HepG2 cells, HepG2, DMEM without fatty acid (−OA), read-out: Cytotoxicity (CC50), concentration at which 50% of cells died.

For the compound `COC(=O)[C@@H]1Cc2c([nH]c3ccccc23)C(c2ccc(COC(C)=O)o2)N1` (stereo partly shown) [Compound 1, Methyl 1,2,3,4-Tetrahydro-1-(5-[(acetyloxy)methyl]-2-furanyl)-9H-pyrido [3,4-b]indole-3-carboxylic acid], the inhibition at 400 µM in the series with HepG2 cells [1] (setting [6]) stood at 63.2%. For the same compound, the CC50 at 24 h was determined as 442 µM in series [2] (setting [7]) and 488 µM in series [2] (setting [8]). In series [2] (HepG2 cells), the IC50 at 24 h stood at 488 µM.
Consider `O=C(O)C1Cc2c([nH]c3ccccc23)CN1` (stereo not drawn) [Compound 6, 1,2,3,4-Tetrahydro-β-carboline-3-carboxylic acid], for which the CC50 at 24 h came out at 520 µM in series [2] (setting [7]) and 505 µM in series [2] (setting [8]).
In the case of `CCCCCCCC/C=C\CCCCCCCC(=O)O` [oleic acid, reference compound], the “Induction of LDs” value was found to be 2.6 fold in the series with HepG2 cells [1] (0.25 mM oleic acid, 24 h) and 2.8 fold in the series on HepG2 cells [1] (0.5 mM oleic acid, 24 h). Also, the “Cell viability after oleic acid treatment (in words)” value with HepG2 cells [3] is listed as “no cytotoxicity”.
Consider `COC(=O)c1cc2c([nH]c3ccccc32)c(-c2ccc(COC(C)=O)o2)n1` [Compound 3, flazin methyl ester acetate], for which the inhibition at 50 µM in the series with HepG2 cells [1] (Homo sapiens, HepG2, 24 h, 50 μM, HepG2 + 0.25 mM oleic acid, vs untreated control (+OA)) was determined as 26%. Besides, the figures for the CC50 at 24 h in series [2] (setting [7]) and in series [2] (setting [8]) were 131 µM and 66.8 µM, respectively. Also, the IC50 at 24 h in series [2] (HepG2 cells) is 66.9 µM.
Take `COC(=O)c1cc2c(cn1)[nH]c1ccccc12` [Compound 7, methyl β-carboline-3-carboxylate]: the inhibition at 400 µM in the series with HepG2 cells [1] (Homo sapiens, 24 h, HepG2 + 0.25 mM oleic acid, vs untreated control (+OA)) stood at 25.4%. The CC50 at 24 h in series [2] (HepG2, DMEM loaded with fatty acid (+OA), read-out: Lipocytotoxicity (LC50), concentration at which 50% of cells died) worked out at 498 µM; in series [2] (HepG2, DMEM without fatty acid (−OA), read-out: Cytotoxicity (CC50), concentration at which 50% of cells died), 390 µM.
Turning to `COC(=O)C1Cc2c([nH]c3ccccc23)CN1` (stereo not drawn) [Compound 5, methyl 1,2,3,4-tetrahydro-β-carboline-3-carboxylate], the inhibition at 400 µM in the series with HepG2 cells [1] (setting [6]) is 42%. Also, the results for the CC50 at 24 h in series [2] (setting [7]) and in series [2] (setting [8]) were 488 µM and 397 µM, respectively.
Regarding `Oc1cc(O)c2cc(O)c(-c3cc(O)c(O)c(O)c3)[o+]c2c1` [Delphinidin], the Hepatic triglyceride accumulation entry in the series on human HepG2 is listed as “ameliorated hepatic triglyceride accumulation”.
Take `O=C(O)c1cc2c(cn1)[nH]c1ccccc12` [Compound 8, β-Carboline-3-carboxylic acid]: the inhibition at 400 µM in the series with HepG2 cells [1] (setting [6]) came to 81.8%. Further, the CC50 at 24 h in series [2] (setting [7]) was determined as 530 µM; in series [2] (setting [8]), 549 µM.
As for `O=c1c(-c2ccc(O)cc2)coc2c([C@@H]3O[C@H](CO)[C@@H](O)[C@H](O)[C@H]3O)c(O)ccc12` [Puerarin], the Hepatic steatosis result with HepG2 cells [4] is given as “ameliorates hepatic steatosis”.
Take `COc1c(O)cc(CO)cc1O` [DHMBA, 3,5-dihydroxy-4-methoxybenzyl alcohol, reference compound]: the Nrf2-dependent antioxidant action entry in series [5] is recorded as “Nrf2-dependent antioxidant action”.

For orientation: inhibition means the relative decrease from the control value, in per cent. A word on the IC50: it is the concentration needed to halve the response being measured.

Source of the values: publication PMC9147645, “Food-Derived β-Carboline Alkaloids Ameliorate Lipid Droplet Accumulation in Human Hepatocytes” (Pharmaceuticals, 2022).
